This note sets out measurements from patent EP3478687B1 (Daewoong Pharmaceutical Co., Ltd., priority 2016, dated 2018).

The target in experiment [1] is T1, Recombinant purified human JAK3 (Homo sapiens, UniProt P52333).
T1 construct: purchased Promega V9441
T1 sequence (P52333 1-1124): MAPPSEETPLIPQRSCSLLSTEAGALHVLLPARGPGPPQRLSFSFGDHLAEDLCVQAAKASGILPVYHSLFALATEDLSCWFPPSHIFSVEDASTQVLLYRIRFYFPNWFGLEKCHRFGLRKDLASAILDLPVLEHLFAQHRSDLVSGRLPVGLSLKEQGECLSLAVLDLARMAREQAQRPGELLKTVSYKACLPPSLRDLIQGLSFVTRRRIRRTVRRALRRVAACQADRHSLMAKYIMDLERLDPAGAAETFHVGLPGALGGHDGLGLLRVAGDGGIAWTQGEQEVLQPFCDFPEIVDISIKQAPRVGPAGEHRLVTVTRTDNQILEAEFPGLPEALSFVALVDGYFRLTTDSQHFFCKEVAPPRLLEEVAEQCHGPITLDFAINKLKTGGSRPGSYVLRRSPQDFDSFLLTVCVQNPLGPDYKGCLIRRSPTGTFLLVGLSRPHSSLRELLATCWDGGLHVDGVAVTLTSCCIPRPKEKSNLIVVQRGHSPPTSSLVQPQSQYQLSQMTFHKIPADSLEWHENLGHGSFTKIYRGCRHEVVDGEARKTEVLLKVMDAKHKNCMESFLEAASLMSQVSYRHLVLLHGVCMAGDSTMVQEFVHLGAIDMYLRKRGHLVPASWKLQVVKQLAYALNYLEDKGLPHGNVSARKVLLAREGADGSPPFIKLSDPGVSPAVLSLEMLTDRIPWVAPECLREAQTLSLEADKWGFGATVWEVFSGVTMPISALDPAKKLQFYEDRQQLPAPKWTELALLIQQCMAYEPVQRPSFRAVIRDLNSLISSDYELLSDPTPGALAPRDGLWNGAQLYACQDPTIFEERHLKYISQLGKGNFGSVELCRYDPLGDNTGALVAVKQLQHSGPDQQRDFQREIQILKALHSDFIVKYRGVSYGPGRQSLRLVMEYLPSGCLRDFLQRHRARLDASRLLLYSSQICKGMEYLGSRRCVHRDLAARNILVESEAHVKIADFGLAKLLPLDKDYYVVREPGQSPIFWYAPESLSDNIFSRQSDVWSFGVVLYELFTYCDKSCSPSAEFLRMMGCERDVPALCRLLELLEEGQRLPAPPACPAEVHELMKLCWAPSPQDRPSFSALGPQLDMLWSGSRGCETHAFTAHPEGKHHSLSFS
The experiment in a line: JAK3 kinase inhibitory activity, ADP-Glo kinase assay (Promega V9441). Format: biochemical. As to conditions: ATP 5 uM, 4 ng JAK3 per reaction, 1 hour 30 °C, chemiluminescence. Put shortly: (§1)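 IC50 values come from ADP-Glo luminescence after 1 h kinase reactions at 30 °C in 1% DMSO on 0.2 µg/µL Poly(Glu4,Tyr1) substrate. ATP was 10 µM for BTK (8 ng, buffer containing MnCl2) and 5 µM for JAK3 (4 ng), in Tris-Cl pH 7.5/MgCl2/BSA/DTT.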

Experiment [2] addresses T2, Recombinant purified human BTK (Homo sapiens, UniProt Q06187).
T2 construct: purchased Promega V9071
The experiment in a line: BTK kinase inhibitory activity, ADP-Glo kinase assay (Promega V9071). Format: biochemical. The following applies: ATP 10 uM, 8 ng BTK per reaction, 1 hour 30 °C, chemiluminescence. Put shortly:
as §1

SMILES strings stand for the structures. Where only a bound is given, the exact number is not on record here.

A word on the IC50: it is the point on the concentration scale where inhibition reaches its midpoint.

T2 sequence (Q06187 whole entry): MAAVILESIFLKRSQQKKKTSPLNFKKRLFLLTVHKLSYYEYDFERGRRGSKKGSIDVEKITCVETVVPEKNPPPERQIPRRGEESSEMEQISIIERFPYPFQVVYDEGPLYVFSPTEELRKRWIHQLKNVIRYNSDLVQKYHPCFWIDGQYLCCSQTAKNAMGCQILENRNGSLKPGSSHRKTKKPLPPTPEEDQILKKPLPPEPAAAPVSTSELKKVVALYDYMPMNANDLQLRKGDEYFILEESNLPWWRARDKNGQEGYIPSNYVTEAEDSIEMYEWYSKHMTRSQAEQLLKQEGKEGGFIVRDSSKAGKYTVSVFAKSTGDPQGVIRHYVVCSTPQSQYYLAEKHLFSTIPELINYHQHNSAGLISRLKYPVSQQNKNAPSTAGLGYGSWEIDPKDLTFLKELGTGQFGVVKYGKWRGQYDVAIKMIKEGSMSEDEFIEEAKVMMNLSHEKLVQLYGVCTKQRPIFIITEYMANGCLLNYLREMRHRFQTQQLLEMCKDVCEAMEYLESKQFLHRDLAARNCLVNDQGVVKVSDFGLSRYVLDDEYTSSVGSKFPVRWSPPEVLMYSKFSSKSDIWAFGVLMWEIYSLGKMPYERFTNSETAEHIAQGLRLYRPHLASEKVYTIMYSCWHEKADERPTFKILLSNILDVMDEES

On to `C=CC(=O)N1CC[C@@H](C)[C@@H](Nc2nc(Nc3cnn(CCN4CCOCC4)c3)nc3[nH]nc(Cl)c23)C1` [Example 123, 1-((3R,4R)-3-((3-chloro-6-((1-(2-morpholinoethyl)-1H-pyrazol-4-yl)amino)-1H-pyrazolo[3,4-d]pyrimidin-4-yl)amino)-4-methylpiperidin-1-yl)prop-2-en-1-one], for which the figures for the 50% inhibitory concentration (IC50) in experiment [1] and in experiment [2] were 0.0079 µM and 0.0058 µM, respectively.

`C=CC(=O)N1CC[C@@H](C)[C@@H](Nc2nc(Nc3cnn(CC(C)C)c3)nc3[nH]nc(Cl)c23)C1` [Example 124, 1-((3R,4R)-3-((3-chloro-6-((1-isobutyl-1H-pyrazol-4-yl)amino)-1H-pyrazolo[3,4-d]pyrimidin-4-yl)amino)-4-methylpiperidin-1-yl)prop-2-en-1-one]: the IC50 in experiment [1] is 0.0084 µM; in experiment [2] it was 0.0035 µM.

As to `C=CC(=O)N1CC[C@@H](C)[C@@H](Nc2nc(Nc3cnn(Cc4cccc(OC)c4)c3)nc3[nH]nc(Cl)c23)C1` [Example 125, 1-((3R,4R)-3-((3-chloro-6-((1-(3-methoaybenzyl)-1H-pyrazol-4-yl)amino)-1H-pyrazolo[3,4-d]pyrimidin-4-yl)amino)-4-methylpiperidin-1-yl)prop-2-en-1-one], the IC50 in experiment [1] is 0.0204 µM; in experiment [2], 0.0082 µM.

For the molecule `C=CC(=O)N1CC[C@@H](C)[C@@H](Nc2nc(Nc3cnn(CC#N)c3)nc3[nH]nc(Cl)c23)C1` [Example 126, 2-(4-((4-(((3R,4R)-1-acryloyl-4-methylpiperidin-3-yl)amino)-3-chloro-1H-pyrazolo[3,4-d]pyrimidin-6-yl)amino)-1H-pyrazol-1-yl)acetonitrile], the IC50 in experiment [1] came to 0.0029 µM; in experiment [2], 0.0012 µM.

`C=CC(=O)N1CC[C@@H](C)[C@@H](Nc2nc(Nc3cnn(C(F)F)c3)nc3[nH]nc(Cl)c23)C1` [Example 127, 1-((3R,4R)-3-((3-chloro-6-((1-(difluoromethyl)-1H-pyrazol-4-yl)amino)-1H-pyrazolo [3,4-d]pyrimidin-4-yl)amino)-4-methylpiperidin-1-yl)prop-2-en-1-one]: the IC50 was 0.0431 µM in experiment [1] and 0.0015 µM in experiment [2].

In the case of `C=CC(=O)N1CC[C@@H](C)[C@@H](Nc2nc(Nc3cnn(C)c3)nc3[nH]nc(Cl)c23)C1` [Example 128], the IC50 turned out to be 0.0146 µM in experiment [1] and 0.0058 µM in experiment [2].

As to `C=CC(=O)N1CCC[C@@H](Nc2nc(Nc3cnn(C4CC4)c3)nc3[nH]nc(SC)c23)C1` [Example 129], the IC50 in experiment [1] is 0.0423 µM; in experiment [2] it was 0.0023 µM.

With `C=CC(=O)N1CCC[C@@H](N(C)c2nc(Nc3cnn(CC)c3)nc3[nH]nc(SC)c23)C1` [Example 131, (R)-1-(3-((6-((1-ethyl-1H-pyrazol-4-yl)amino)-3-(methylthio)-1H-pyrazolo [3,4-d]pyrimidin-4-yl)(methyl)amino)piperidin-1-yl)prop-2-en-1-one], the IC50 amounted to 0.0245 µM in experiment [1] and 0.0016 µM in experiment [2].

Take `C=CC(=O)N1CC[C@@H](C)[C@@H](Nc2nc(Nc3cnn(CC)c3)nc3[nH]nc(SC)c23)C1` [Example 132, 1-((3R,4R)-3-((6-((1-ethyl-1H-pyrazol-4-yl)amino)-3-(methylthio)-1H-pyrazolo[3,4-d]pyrimidin-4-yl)amino)-4-methylpiperidin-1-yl)prop-2-en-1-one]: the IC50 in experiment [1] was found to be 0.0255 µM; in experiment [2] it was 0.0021 µM.

With `C=CC(=O)N1CC[C@@H](C)[C@@H](Nc2nc(Nc3cnn(CC(F)F)c3)nc3[nH]nc(SC)c23)C1` [Example 133, 1-((3R,4R)-3-((6-((1-(2,2-difluoroethyl)-1H-pyrazol-4-yl)amino)-3-(methylthio)-1H-pyrazolo [3,4-d]pyrimidin-4-yl)amino)-4-methylpiperidin-1-yl)prop-2-en-1-one], the IC50 was 0.016 µM in experiment [1] and 0.0016 µM in experiment [2].

Turning to `C=CC(=O)N1CC[C@@H](C)[C@@H](Nc2nc(Nc3cnn(CC#N)c3)nc3[nH]nc(SC)c23)C1` [Example 134, 2-(4-((4-(((3R,4R)-1-acryloyl-4-methylpiperidin-3-yl)amino)-3-(methylthio)-1H-pyrazolo[3,4-d]pyrimidin-6-yl)amino)-1H-pyrazol-1-yl)acetonitrile], the IC50 in experiment [1] came to 0.0177 µM; in experiment [2], 0.0018 µM.

As for `C=CC(=O)N1CC[C@@H](C)[C@@H](Nc2nc(Nc3cnn(C4CC4)c3)nc3[nH]nc(SC)c23)C1` [Example 135, 1-((3R,4R)-3-((6-((1-cyclopropyl-1H-pyrazol-4-yl)amino)-3-(methylthio)-1H-pyrazolo[3,4-d]pyrimidin-4-yl)amino)-4-methylpiperidin-1-yl)prop-2-en-1-one], the IC50 in experiment [1] came out at 0.0423 µM; in experiment [2] it was 0.0023 µM.

Consider `C=CC(=O)N1CCC[C@@H](Nc2nc(Nc3cc(C)ns3)nc3[nH]cc(Cl)c23)C1` [Example 136, (R)-1-(3-((5-chloro-2-((3-methylisothiazol-5-yl)amino)-7H-pyrrolo[2,3-d]pyrimidin-4-yl)amino)piperidin-1-yl)prop-2-en-1-one], for which the IC50 in experiment [1] is 0.0001 µM; in experiment [2] it was 0.0011 µM.

In the case of `C=CC(=O)N1CCC[C@@H](Nc2nc(Nc3cccnc3)nc3[nH]cc(Cl)c23)C1` [Example 137, (R)-1-(3-((5-chloro-2-(pyridin-3-ylamino)-7H-pyrrolo[2,3-d]pyrimidin-4-yl)amino)piperidin-1-yl)prop-2-en-1-one], the IC50 was 0.0026 µM in experiment [1] and 0.0196 µM in experiment [2].

In the case of `CCn1cc(Nc2nc(N[C@H]3CN(C(=O)CC#N)CC[C@H]3F)c3c(Cl)n[nH]c3n2)cn1` [Example 138], the IC50 is > 0.08 µM in experiment [1] and 0.0927 µM in experiment [2].

As to `N#CCC(=O)N1CCC[C@@H](Nc2nc(Nc3cnn(C4CC4)c3)nc3[nH]nc(Cl)c23)C1` [Example 139, (R)-3-(3-((3-chloro-6-((1-cyclopropyl-1H-pyrazol-4-yl)amino)-1H-pyrazolo[3,4-d]pyrimidin-4-yl)amino)piperidin-1-yl)-3-oxopropanenitrile], the values for the IC50 in experiment [1] and in experiment [2] were > 0.08 µM and 0.143 µM, respectively.

For `C/C=C/C(=O)N1CCC[C@@H](Nc2nc(Nc3ccc(N4CCN(C)CC4)cc3)nc3[nH]cc(Cl)c23)C1` [Example 140, (R,E)-1-(3-((5-chloro-2-((4-(4-methylpiperazin-1-yl)phenyl)amino)-7H-pyrrolo [2,3-d]pyrimidin-4-yl)amino)piperidin-1-yl)but-2-en-1-one], the IC50 is > 0.08 µM in experiment [1] and 0.986 µM in experiment [2].

For `CN1CCN(c2ccc(Nc3nc(N[C@@H]4CCCN(C(=O)C#CC5CC5)C4)c4c(Cl)c[nH]c4n3)cc2)CC1` [Example 141, (R)-1-(3-((5-chloro-2-((4-(4-methylpiperazin-1-yl)phenyl)amino)-7H-pyrrolo [2,3-d]pyrimidin-4-yl)amino)piperidin-1-yl)-3-cyclopropylprop-2-yn-1-one], the 50% inhibitory concentration (IC50) in experiment [1] was 0.0385 µM; in experiment [2], 0.306 µM.

On to `CCC#CC(=O)N1CCC[C@@H](Nc2nc(Nc3ccc(N4CCN(C)CC4)cc3)nc3[nH]cc(Cl)c23)C1` [Example 142, (R)-1-(3-((5-chloro-2-((4-(4-methylpiperazin-1-yl)phenyl)amino)-7H-pyrrolo[2,3-d]pyrimidin-4-yl)amino)piperidin-1-yl)pent-2-yn-1-one], for which the IC50 in experiment [1] came to 0.0224 µM; in experiment [2] it was 0.21 µM.
